# Measured values as given in patent publication US6117840A, “CS-1 peptidomimetics, compositions and methods of using the same” (Cytel Corporation, priority 1997, dated 2000).
# Square brackets hold non-standard residues; d marks the D form. Peptide text beside a SMILES is read from it. * marks the point of attachment. Morpholide = C1CN(*)CCO1; Nle = CCCC[C@H](N)C(=O)O; Piperidide = C1CCN(*)CC1; Pyrrolidide = C1CCN(*)C1; NHDecyl = CCCCCCCCCCN*; PhAc = O=C(Cc1ccccc1)*; NHBn = c1ccc(CN*)cc1; Bz = O=C(c1ccccc1)*; NHBu = CCCCN*
# Molecular target: T1, VLA-4 (Homo sapiens, UniProt P05556+P13612)
# T1 construct: host or cells: Jurkat (human T lymphoblastic line)
# T1 sequence (P13612 34-1032): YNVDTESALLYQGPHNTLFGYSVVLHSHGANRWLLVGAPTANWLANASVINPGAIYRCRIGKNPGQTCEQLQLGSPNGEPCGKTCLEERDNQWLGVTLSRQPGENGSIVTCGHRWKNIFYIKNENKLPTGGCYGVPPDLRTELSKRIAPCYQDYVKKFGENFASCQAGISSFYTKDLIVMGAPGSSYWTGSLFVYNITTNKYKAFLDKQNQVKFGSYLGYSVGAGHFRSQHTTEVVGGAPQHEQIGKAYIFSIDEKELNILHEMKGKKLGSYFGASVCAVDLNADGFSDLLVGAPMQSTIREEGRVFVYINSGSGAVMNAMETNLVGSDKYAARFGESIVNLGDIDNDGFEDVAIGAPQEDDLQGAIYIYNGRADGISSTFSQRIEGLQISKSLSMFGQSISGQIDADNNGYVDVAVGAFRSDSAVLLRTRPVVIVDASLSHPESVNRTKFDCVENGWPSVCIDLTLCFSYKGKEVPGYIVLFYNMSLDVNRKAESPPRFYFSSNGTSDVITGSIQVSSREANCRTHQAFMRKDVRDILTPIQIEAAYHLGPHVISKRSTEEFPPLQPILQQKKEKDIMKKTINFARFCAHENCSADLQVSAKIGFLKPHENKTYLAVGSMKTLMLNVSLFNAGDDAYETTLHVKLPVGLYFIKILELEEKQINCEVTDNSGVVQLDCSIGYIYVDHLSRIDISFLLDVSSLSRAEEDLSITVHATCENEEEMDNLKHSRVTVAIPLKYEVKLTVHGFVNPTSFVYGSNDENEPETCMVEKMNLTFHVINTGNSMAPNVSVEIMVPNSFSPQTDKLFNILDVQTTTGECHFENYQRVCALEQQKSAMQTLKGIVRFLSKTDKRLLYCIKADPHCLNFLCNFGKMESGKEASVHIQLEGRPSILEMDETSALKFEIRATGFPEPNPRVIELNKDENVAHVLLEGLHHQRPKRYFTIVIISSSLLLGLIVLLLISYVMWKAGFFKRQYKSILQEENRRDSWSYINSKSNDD
# T1 sequence (P05556 21-798): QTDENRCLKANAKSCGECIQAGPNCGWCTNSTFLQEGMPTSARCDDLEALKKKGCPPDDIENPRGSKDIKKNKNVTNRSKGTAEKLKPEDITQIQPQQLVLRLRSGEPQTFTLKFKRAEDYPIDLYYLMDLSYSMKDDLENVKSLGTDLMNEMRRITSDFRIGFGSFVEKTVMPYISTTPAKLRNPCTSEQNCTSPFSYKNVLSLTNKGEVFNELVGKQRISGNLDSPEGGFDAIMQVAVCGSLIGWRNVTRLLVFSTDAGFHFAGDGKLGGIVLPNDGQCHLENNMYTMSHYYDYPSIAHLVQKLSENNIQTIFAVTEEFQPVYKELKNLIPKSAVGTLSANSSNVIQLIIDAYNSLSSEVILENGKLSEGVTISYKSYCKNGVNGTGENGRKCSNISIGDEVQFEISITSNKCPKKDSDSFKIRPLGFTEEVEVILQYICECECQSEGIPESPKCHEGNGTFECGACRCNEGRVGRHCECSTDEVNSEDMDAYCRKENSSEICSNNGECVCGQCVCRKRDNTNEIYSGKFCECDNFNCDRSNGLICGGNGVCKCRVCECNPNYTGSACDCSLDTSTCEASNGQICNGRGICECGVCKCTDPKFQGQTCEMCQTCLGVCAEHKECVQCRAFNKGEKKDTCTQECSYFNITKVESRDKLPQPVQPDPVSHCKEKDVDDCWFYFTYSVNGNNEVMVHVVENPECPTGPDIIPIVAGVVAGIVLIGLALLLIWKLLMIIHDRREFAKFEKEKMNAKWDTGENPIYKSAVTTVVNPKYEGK
# Type: cell-based
# Conditions: not given
# Experimental: Binding inhibition is measured here as a concentration of peptide that inhibits one-half the binding between a standard number of Jurkat cells and a standard amount of CS-1 peptide bound to the surface of a microtiter plate well. Those concentrations are conveniently expressed as IC50 values, smaller numbers indicating a lower concentration required to inhibit 50 percent binding and therefore greater potency. Further specifics of this assay are provided hereinafter.
# Jurkat cells (ATCC TIB 152), a human T lymphoblastic line, labeled with ^51 chromium were used to assay in vitro binding inhibition provided by various peptides discussed herein.
# The plates were prepared as follows: The 25-mer CS1 peptide (SEQ ID NO:1) dissolved at 0.5-1 μg/ml in a buffer of 0.1M NaHCO3 at pH 9.5 tha also contained 10 μg/ml of bovine serum albumin (BSA) or a conjugate o the CS1 peptide linked to ovalbumin (CS1-OVA) dissolved at 1-2.5 μg/ml in the same buffer was used as the substrate. Each well of the microtiter plates was coated with 50 μl of substrate or buffer alone for controls The wells were permitted to dry out completely and were then rinsed twice with PBS at pH 7.4. Nonspecific binding sites of each well were then blocked using 200 μl per well of RPMI/1 percent BSA for two hours at room temperature. Both solid phaseaffixed substrates provided similar results.
# Jurkat cells (3-5×10^6 cells) were placed into a 15 ml Falcon.TM roundbottom tube with a cap. The tube was centrifuged, and the extra medium was then removed.
# Two hundred microliters of a ^51 Cr labeling solution were added to th centrifuged cells and maintained in contact with the cells for 90-120 minutes in a warm room. This procedure typically provides about 50,000-100,000 cpm/well with about 80-100 percent cell viability. Longer contact times provide a greater amount of labeling but lower cell viability.
# The labeled cells are washed with (i) complete medium, (ii) 1 mM EDTA/PBS and then (iii) RPMI/1 percent BSA free of serum components. The cells are centrifuged after each washing. The cells are finally resuspended in serumfree RPMI/1 percent BSA at a concentration of 1×10^6 viabl cells/ml, which provides a concentration that is diluted by onehalf in th assay.
# Inhibitor peptides are prepared as stock solutions at 20 mg/ml in DMSO in 1.5 ml cryogenic screwcap vials, and were stored at -70° C. Using Flow™ roundbottom or Vbottom microtiter plates, the inhibitor peptides were prepared at twice the assay concentration in RPMI/1 percent BSA at 6 μl/well.
# Four initial dilutions were typically used.
# The ^51 Crlabeled cells (1×10^6 cells at 60 μl/well) were then admixed with the diluted peptide solutions. The admixtures were maintained at room temperature (about 22° C.) for 30 minutes.
# One hundred microliters of each inhibitor peptide/cell admixture were transferred to the substratecoated wells. This was done in triplicate for each dilution. The resulting plates were incubated for 30 minutes at 37° C. and then washed gently three times with RPMI/1 percent BSA at 200 μl/well. Binding was observed microscopically, particularly after the second wash.
# The bound cells were then lysed by the addition of a 0.5 percent solution of sodium dodecylsulfate in water at 100 μl/well. The resulting solutions were then processed for counting and calculation of IC50 values following usual procedures. Appropriate positive and negative controls were used with each plate so that the results of separate assays could be normalized and compared.
row,SMILES,RELATIVE POTENCY (inhibition of VLA-4 binding CS-1)
1,CC(=O)N[C@@H](CC(C)C)C(=O)N[C@@H](CC(=O)O)C(=O)N[C@@H](Cc1ccccc1)C(N)=O [L D F acetyl amide] (Ac-Leu-Asp-Phe-NH2),0
2,"CC(=O)N[C@@H](CC(C)C)C(=O)N[C@@H](CC(=O)O)C(=O)N[C@H](C(N)=O)C(C)C [L D V acetyl amide, reference compound] (Ac-Leu-Asp-Val-NH2)",0

# Same assay, conditions: compared to standard 10-mer / B12
row,SMILES,binding inhibition (in words)
1,"CC[C@H](C)[C@H](NC(=O)[C@H](CCC(=O)O)NC(=O)[C@@H]1CCCN1C(=O)CNC(=O)[C@H](Cc1c[nH]cn1)NC(=O)[C@H](CC(C)C)NC(=O)[C@H](CC(N)=O)NC(=O)[C@@H]1CCCN1C(=O)[C@H](Cc1c[nH]cn1)NC(=O)[C@@H]1CCCN1C(=O)[C@H](CC(C)C)NC(=O)[C@@H](NC(=O)[C@@H](NC(=O)[C@H](CC(C)C)NC(=O)[C@H](CCC(N)=O)NC(=O)[C@@H]1CCCN1C(=O)[C@H](CC(C)C)NC(=O)[C@H](CCC(=O)O)NC(=O)[C@@H](N)CC(=O)O)C(C)C)[C@@H](C)O)C(=O)N[C@@H](CC(C)C)C(=O)N[C@@H](CC(=O)O)C(=O)N[C@H](C(=O)N1CCC[C@H]1C(=O)N[C@@H](CO)C(=O)N[C@H](C(=O)O)[C@@H](C)O)C(C)C [CS-1 peptide, reference compound] (H-DELPQLVTLPHPNLHGPEILDVPST-OH)",three times more potent

# Same assay, conditions: relative to standard peptide SEQ ID NO:3 (=1), normalized IC50; about one-tenth or less of SEQ ID NO:3 assigned zero
row,SMILES,RELATIVE POTENCY (inhibition of VLA-4 binding CS-1)
1,CCCC[C@H](NC(=O)Cc1ccccc1)C(=O)N[C@@H](CC(=O)O)C(=O)N[C@@H](Cc1ccccc1)C(=O)N1CCC[C@@H]1C(N)=O [X K D F p phenylacetyl amide J = Nle] (PhAc-[Nle]DF[dP]-NH2),49
2,CCCCCCCCCCNC(=O)[C@@H]1CCCN1C(=O)[C@H](Cc1ccccc1)NC(=O)[C@H](CC(=O)O)NC(=O)[C@H](CC(C)C)NC(=O)Cc1ccccc1 [X L D F P Z phenylacetyl decylamide] (PhAc-LDFP-NHDecyl),2
3,"CC(C)C[C@H](NC(=O)Cc1ccccc1)C(=O)N[C@@H](CC(=O)O)C(=O)N[C@@H](Cc1ccccc1)C(=O)N1CCOCC1 [X L D F Z phenylacetyl morpholinamide, N--phenylacetyl--Leu--Asp--Phe--morpholinamide] (PhAc-Leu-Asp-Phe-Morpholide)",844
4,CCCCNC(=O)[C@H](Cc1ccccc1)NC(=O)[C@H](CC(=O)O)NC(=O)[C@H](CC(C)C)NC(=O)Cc1ccccc1 [X L D F Z phenylacetyl n-butylamide] (PhAc-Leu-Asp-Phe-NHBu),3
5,CC(C)C[C@H](NC(=O)Cc1ccccc1)C(=O)N[C@@H](CC(=O)O)C(=O)N[C@@H](Cc1ccccc1)C(=O)N1CCNCC1 [X L D F Z phenylacetyl piperazinamide],506
6,"CC(C)C[C@H](NC(=O)Cc1ccccc1)C(=O)N[C@@H](CC(=O)O)C(=O)N[C@@H](Cc1ccccc1)C(=O)N1CCCCC1 [X L D F Z phenylacetyl piperidinamide, N--phenylacetyl--Leu--Asp--Phe--piperidinamide] (PhAc-Leu-Asp-Phe-Piperidide)",231
7,CC(C)C[C@H](NC(=O)Cc1ccccc1)C(=O)N[C@@H](CC(=O)O)C(=O)N[C@@H](Cc1ccccc1)C(=O)N1CCCC1 [X L D F Z phenylacetyl pyrrolidinamide] (PhAc-Leu-Asp-Phe-Pyrrolidide),250
8,CC(C)C[C@H](NC(=O)c1ccccc1)C(=O)N[C@@H](CC(=O)O)C(=O)N[C@@H](Cc1ccccc1)C(=O)N1CCC[C@@H]1C(N)=O [X L D F p benzoyl amide] (Bz-LDF[dP]-NH2),75
9,CC(C)C[C@H](NC(=O)Cc1ccccc1)C(=O)N[C@@H](CC(=O)O)C(=O)N[C@@H](Cc1ccccc1)C(N)=O [X L D F phenylacetyl amide] (PhAc-Leu-Asp-Phe-NH2),< 1
10,CC(C)C[C@H](NC(=O)Cc1ccccc1)C(=O)N[C@@H](CC(=O)O)C(=O)NCC(=O)N1CCOCC1 [X L D G Z phenylacetyl morpholinamide] (PhAc-Leu-Asp-Gly-Morpholide),9
11,CC(C)C[C@H](NC(=O)Cc1ccccc1)C(=O)N[C@@H](CC(=O)O)C(=O)N[C@@H](CC(C)C)C(=O)N1CCOCC1 [X L D L Z phenylacetyl morpholinamide] (PhAc-Leu-Asp-Leu-Morpholide),291
12,CC(C)C[C@H](NC(=O)Cc1ccccc1)C(=O)N[C@@H](CC(=O)O)C(=O)N[C@@H](CO)C(=O)N1CCC[C@@H]1C(N)=O [X L D S p phenylacetyl amide] (PhAc-LDS[dP]-NH2),17
13,CC(C)C[C@H](NC(=O)c1ccccc1)C(=O)N[C@@H](CC(=O)O)C(=O)N[C@H](C(=O)N1CCC[C@H]1C(N)=O)C(C)C [X L D V P benzoyl amide],37
14,"CC(C)C[C@H](NC(=O)Cc1ccccc1)C(=O)N[C@@H](CC(=O)O)C(=O)N[C@H](C(=O)N1CCC[C@@H]1C(N)=O)C(C)C [X L D V p phenylacetyl amide, N--phenylacetyl--Leu--Asp--Val--D--Pro--NH2]",106
15,CC(C)C[C@H](NC(=O)Cc1ccccc1)C(=O)N[C@@H](CC(=O)O)C(=O)N[C@@H](Cc1c[nH]c2ccccc12)C(=O)N1CCC[C@@H]1C(N)=O [X L D W p phenylacetyl amide] (PhAc-LDW[dP]-NH2),184
16,"CC(C)C[C@H](NC(=O)Cc1ccccc1)C(=O)N[C@@H](CC(=O)O)C(=O)N[C@@H](Cc1ccc(O)cc1)C(=O)N1CCOCC1 [X L D Y Z phenylacetyl morpholinamide, N--phenylacetyl--Leu--Asp--Tyr--morpholinamide] (PhAc-Leu-Asp-Tyr-Morpholide)",313
17,"CC(C)C[C@H](NC(=O)Cc1ccccc1)C(=O)N[C@@H](CC(=O)O)C(=O)N[C@@H](Cc1ccc(O)cc1)C(=O)N1CCC[C@@H]1C(N)=O [X L D Y p phenylacetyl amide, N--phenylacetyl--Leu--Asp--Tyr--D--Pro--NH2] (PhAc-LDY[dP]-NH2)",640
18,CC(C)C[C@H](NC(=O)Cc1ccccc1)C(=O)N[C@@H](CC(=O)O)C(=O)NNC(=O)OC(C)(C)C [X L D Z phenylacetyl N'-t-Boc-hydrazide],2
19,CC(C)C[C@H](NC(=O)Cc1ccccc1)C(=O)N[C@@H](CC(=O)O)C(=O)NCc1ccccc1 [X L D Z phenylacetyl benzylamide] (PhAc-Leu-Asp-NHBn),19
20,CC(C)C[C@H](NC(=O)Cc1ccccc1)C(=O)N[C@@H](CC(=O)O)C(=O)NC(c1ccccc1)c1ccccc1 [X L D Z phenylacetyl benzylhydrylamide],3

# Same assay, conditions: relative to standard peptide SEQ ID NO:3 (=1), normalized IC50; about one-tenth or less of SEQ ID NO:3 assigned zero; listed as Leu--Asp--Val (LDV) Nfre amine Camide
row,SMILES,RELATIVE POTENCY (inhibition of VLA-4 binding CS-1)
1,"CC(C)C[C@H](N)C(=O)N[C@@H](CC(=O)O)C(=O)N[C@H](C(N)=O)C(C)C [L D V free amine amide, reference compound] (H-Leu-Asp-Val-NH2)",zero

# Same assay, conditions: relative to standard peptide SEQ ID NO:3 (=1), normalized IC50; about one-tenth or less of SEQ ID NO:3 assigned zero; listed as X L D V p benzoyl amide
row,SMILES,RELATIVE POTENCY (inhibition of VLA-4 binding CS-1)
1,CC(C)C[C@H](NC(=O)c1ccccc1)C(=O)N[C@@H](CC(=O)O)C(=O)N[C@H](C(=O)N1CCC[C@H]1C(N)=O)C(C)C [X L D V P benzoyl amide],20

# Same assay, conditions: relative to standard peptide SEQ ID NO:3 (=1), normalized IC50; about one-tenth or less of SEQ ID NO:3 assigned zero; listed as X L D Y P phenylacetyl amide
row,SMILES,RELATIVE POTENCY (inhibition of VLA-4 binding CS-1)
1,"CC(C)C[C@H](NC(=O)Cc1ccccc1)C(=O)N[C@@H](CC(=O)O)C(=O)N[C@@H](Cc1ccc(O)cc1)C(=O)N1CCC[C@@H]1C(N)=O [X L D Y p phenylacetyl amide, N--phenylacetyl--Leu--Asp--Tyr--D--Pro--NH2] (PhAc-LDY[dP]-NH2)",405
